Data as given in PubChem BioAssay (NCI).
Several values for one entry are separate records, joined by “and”; a condition that tells them apart may be missing. Equal values may be shown once.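 Step 1: Grow cells in 96-well plates. Step 2: Expose to compound for 48 hours at 5 concentrations. Step 3: Interpolate endpoints linearly; if unreached, use highest concentration. Abbreviation: GI50, concentration required for 50% inhibition of growth. TGI marks complete inhibition of growth.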

tested on: SF-268 CNS; experiment: NCI-60 cell line screen, 48 h

Q: What does the source list for `CCN(Cc1ccc(F)cc1)c1ccc(CO)c(Br)c1`?
A: GI50: 22.6 µM; TGI: > 56.3 µM

Q: How did the GI50 turn out when `Cc1ccc2c(C3C(C#N)=C(N)Oc4cc5ccccc5cc43)cc(=O)oc2c1` (stereo not given) was run?
A: 3.07 µM

Q: What about the TGI of the same molecule?
A: > 100 µM

Q: How did the GI50 turn out when `COC(=O)c1cc2c(s1)-c1nccc3c1c(nc1ccccc13)C2=O` was run?
A: 29.1 µM

Q: What about the TGI of the same molecule?
A: > 100 µM

Q: For `COc1ccc(-c2cc(/C=C/C(=O)c3ccc(OC)c(OC)c3)[nH]n2)cc1`, which GI50 is on record?
A: 1.94 µM

Q: What about the TGI of the same molecule?
A: 4.83 µM

Q: `C[Si](C)(C)/C(I)=C/CO` was tested. Which TGI did it give?
A: 94.1 µM

Q: Which TGI does the source give for `C[N+](C)(C)CC1CCC/C1=N\OC(=O)c1ccccc1` (stereo not given) here?
A: > 100 µM

Q: Which GI50 does the source give for `Oc1ccc(Nc2c3ccccc3nc3occ(Cl)c23)cc1` here?
A: 4.26 µM

Q: And the TGI?
A: > 100 µM

Q: Which results are given for `O=C(Nc1cc(C(F)(F)F)ccc1Cl)c1cccc(NC2=C(Cl)C(=O)N(Cc3ccccc3)C2=O)c1`?
A: GI50: 29.2 µM; TGI: > 100 µM

Q: For `CCCCCCCN=C(N)c1ccc(N2CCN(c3ccc(C(N)=NCCCCCCC)cc3)CC2)cc1`, which TGI is on record?
A: 0.317 µM

Q: How did the TGI turn out when `Cc1ccc(S(=O)OCc2c(C)c(C)c(COS(=O)c3ccc(C)cc3)c(C)c2C)cc1` (stereo not given) was run?
A: > 100 µM

Q: Which TGI does the source give for `COc1ccc2c(c1)c[n+](C)c1c3cc(OC)c(OC)cc3ccc21` here?
A: 9.9 µM

Q: `CN(C)C(=S)Sc1ccc([N+](=O)[O-])cc1[N+](=O)[O-]` was tested. Which GI50 did it give?
A: 3.32 µM

Q: And the TGI?
A: 15.4 µM

Q: Which TGI does the source give for `C[C@H]1CN[C@@H]2[C@@H](C)[C@H]3[C@@H](C[C@H]4[C@@H]5CC[C@H]6C[C@@H](N)CC[C@]6(C)[C@H]5CC[C@]34C)O[C@@]2(O)C1` here?
A: 7.15 µM

Q: Which GI50 does the source give for `CSc1ccccc1C#C/C=C\C#Cc1ccccc1N` here?
A: 3.3 µM

Q: What about the TGI of the same molecule?
A: 25.4 µM

Q: Which GI50 does the source give for `COc1ccc(C(O)(CCC(C)C)C(CN2CCOCC2)c2ccc(Cl)cc2)cc1` (stereo not given) here?
A: 14 µM

Q: And the TGI?
A: 29.3 µM

Q: How did the GI50 turn out when `Cn1c(=O)c(Oc2ccc(F)cc2)cc2cnc(NC3CCOCC3)nc21` was run?
A: > 25 µM

Q: And the TGI?
A: > 25 µM

Q: Which GI50 does the source give for `CC1(C)N=C(N)N=C(N)N1c1ccc(CCCCc2ccc(Cl)c(S(=O)(=O)F)c2)c(Cl)c1` here?
A: 0.509 µM

Q: And the TGI?
A: 15.9 µM

Q: For `Cc1cc2cc3c(=O)[nH]c(=O)[nH]c3nc2cc1C`, which TGI is on record?
A: > 100 µM

Q: `CCc1c(Cl)c(C)cc(O)c1Cl` was tested. Which TGI did it give?
A: > 100 µM

Q: What does the source list for `CC(C)OC(=O)[C@H](C)NP(=O)(OC[C@H]1O[C@@H](n2ccc(=O)[nH]c2=O)[C@](C)(F)[C@@H]1O)Oc1ccccc1` (stereo not given in full)?
A: GI50: > 100 µM; TGI: > 100 µM

Q: Which results are given for `BrCc1cccc(C[P+](c2ccccc2)(c2ccccc2)c2ccccc2)c1`?
A: GI50: 40.4 µM; TGI: > 100 µM

Q: For `C=COC(=O)N[C@H]1CCc2cc(OC)c(OC)c(OC)c2-c2ccc(SC)c(=O)cc21`, which TGI is on record?
A: 44.9 µM

Q: For `Cc1ccc(NC(=O)CCc2nnc(N)o2)cc1`, which TGI is on record?
A: > 100 µM

Q: With `O=C(O)c1ccc(C(=O)O)c2c(C(=O)O)ccc(C(=O)O)c12` as the molecule, how does the TGI read?
A: > 100 µM

Q: For `CSc1nc(NC2OC(COC(C)=O)C(OC(C)=O)C(OC(C)=O)C2OC(C)=O)c(N=CC=Nc2c(NC3OC(COC(C)=O)C(OC(C)=O)C(OC(C)=O)C3OC(C)=O)nc(SC)n(C)c2=O)c(=O)n1C` (stereo not given), which GI50 is on record?
A: > 50 µM

Q: What about the TGI of the same molecule?
A: > 100 µM

Q: With `O=S(=O)(Nc1ccc(Cl)cc1Cl)c1ccc(-c2cnc(C3CC3)o2)cc1` as the molecule, how does the GI50 read?
A: 2.85 µM

Q: What about the TGI of the same molecule?
A: 72.9 µM

Q: With `CCc1ccc(/C=C/c2ccc(O)c3ncccc23)[n+](C)c1` as the molecule, how does the GI50 read?
A: 0.749 µM

Q: What about the TGI of the same molecule?
A: > 100 µM

Q: `S=c1[nH]c2c(Cl)c(Cl)c(Cl)c(Cl)c2[nH]1` was tested. Which TGI did it give?
A: 42.7 µM

Q: For `O=C(/C=C/C=C/c1ccccc1)c1ccccc1`, which TGI is on record?
A: 38.2 µM

tested on: HT29 colon; experiment: NCI-60 cell line screen, 48 h

Q: `CCN(Cc1ccc(F)cc1)c1ccc(CO)c(Br)c1` was tested. Which GI50 did it give?
A: 2.4 µM

Q: What about the TGI of the same molecule?
A: 19.4 µM

Q: For `Cc1ccc2c(C3C(C#N)=C(N)Oc4cc5ccccc5cc43)cc(=O)oc2c1` (stereo not given), which GI50 is on record?
A: 3 µM

Q: And the TGI?
A: 13.1 µM

Q: `COC(=O)c1cc2c(s1)-c1nccc3c1c(nc1ccccc13)C2=O` was tested. Which GI50 did it give?
A: > 100 µM

Q: And the TGI?
A: > 100 µM

Q: How did the GI50 turn out when `COc1ccc(-c2cc(/C=C/C(=O)c3ccc(OC)c(OC)c3)[nH]n2)cc1` was run?
A: 1.55 µM

Q: What about the TGI of the same molecule?
A: 3.45 µM

Q: `C[Si](C)(C)/C(I)=C/CO` was tested. Which TGI did it give?
A: 44.5 µM

Q: With `C[N+](C)(C)CC1CCC/C1=N\OC(=O)c1ccccc1` (stereo not given) as the molecule, how does the TGI read?
A: > 100 µM

Q: `Oc1ccc(Nc2c3ccccc3nc3occ(Cl)c23)cc1` was tested. Which GI50 did it give?
A: 4.49 µM

Q: And the TGI?
A: > 100 µM

Q: For `O=C(Nc1cc(C(F)(F)F)ccc1Cl)c1cccc(NC2=C(Cl)C(=O)N(Cc3ccccc3)C2=O)c1`, which GI50 is on record?
A: 43.1 µM

Q: And the TGI?
A: > 100 µM

Q: With `CCCCCCCN=C(N)c1ccc(N2CCN(c3ccc(C(N)=NCCCCCCC)cc3)CC2)cc1` as the molecule, how does the GI50 read?
A: 2.98 µM

Q: What about the TGI of the same molecule?
A: > 100 µM

Q: How did the TGI turn out when `Cc1ccc(S(=O)OCc2c(C)c(C)c(COS(=O)c3ccc(C)cc3)c(C)c2C)cc1` (stereo not given) was run?
A: > 100 µM

Q: For `COc1ccc2c(c1)c[n+](C)c1c3cc(OC)c(OC)cc3ccc21`, which GI50 is on record?
A: 1.01 µM and 3.61 µM

Q: What about the TGI of the same molecule?
A: 2.31 µM and 15.5 µM

Q: How did the GI50 turn out when `CN(C)C(=S)Sc1ccc([N+](=O)[O-])cc1[N+](=O)[O-]` was run?
A: 0.325 µM

Q: And the TGI?
A: 1.67 µM

Q: For `C[C@H]1CN[C@@H]2[C@@H](C)[C@H]3[C@@H](C[C@H]4[C@@H]5CC[C@H]6C[C@@H](N)CC[C@]6(C)[C@H]5CC[C@]34C)O[C@@]2(O)C1`, which TGI is on record?
A: 3.9 µM

Q: With `CSc1ccccc1C#C/C=C\C#Cc1ccccc1N` as the molecule, how does the GI50 read?
A: 25.1 µM

Q: And the TGI?
A: 54.8 µM

Q: For `COc1ccc(C(O)(CCC(C)C)C(CN2CCOCC2)c2ccc(Cl)cc2)cc1` (stereo not given), which GI50 is on record?
A: 4.41 µM

Q: What about the TGI of the same molecule?
A: 20.1 µM

Q: What does the source list for `Cn1c(=O)c(Oc2ccc(F)cc2)cc2cnc(NC3CCOCC3)nc21`?
A: GI50: > 25 µM; TGI: > 25 µM

Q: How did the GI50 turn out when `CC1(C)N=C(N)N=C(N)N1c1ccc(CCCCc2ccc(Cl)c(S(=O)(=O)F)c2)c(Cl)c1` was run?
A: 0.264 µM

Q: What about the TGI of the same molecule?
A: 15.7 µM

Q: `Cc1cc2cc3c(=O)[nH]c(=O)[nH]c3nc2cc1C` was tested. Which TGI did it give?
A: > 100 µM

Q: Which TGI does the source give for `CCc1c(Cl)c(C)cc(O)c1Cl` here?
A: 77.6 µM

Q: `CC(C)OC(=O)[C@H](C)NP(=O)(OC[C@H]1O[C@@H](n2ccc(=O)[nH]c2=O)[C@](C)(F)[C@@H]1O)Oc1ccccc1` (stereo not given in full) was tested. Which GI50 did it give?
A: > 100 µM

Q: And the TGI?
A: > 100 µM

Q: For `BrCc1cccc(C[P+](c2ccccc2)(c2ccccc2)c2ccccc2)c1`, which GI50 is on record?
A: 14.9 µM

Q: And the TGI?
A: > 100 µM

Q: With `C=COC(=O)N[C@H]1CCc2cc(OC)c(OC)c(OC)c2-c2ccc(SC)c(=O)cc21` as the molecule, how does the TGI read?
A: 0.149 µM

Q: `Cc1ccc(NC(=O)CCc2nnc(N)o2)cc1` was tested. Which TGI did it give?
A: > 100 µM

Q: `O=C(O)c1ccc(C(=O)O)c2c(C(=O)O)ccc(C(=O)O)c12` was tested. Which TGI did it give?
A: > 100 µM

Q: For `CSc1nc(NC2OC(COC(C)=O)C(OC(C)=O)C(OC(C)=O)C2OC(C)=O)c(N=CC=Nc2c(NC3OC(COC(C)=O)C(OC(C)=O)C(OC(C)=O)C3OC(C)=O)nc(SC)n(C)c2=O)c(=O)n1C` (stereo not given), which GI50 is on record?
A: > 50 µM

Q: What about the TGI of the same molecule?
A: > 100 µM

Q: What does the source list for `O=S(=O)(Nc1ccc(Cl)cc1Cl)c1ccc(-c2cnc(C3CC3)o2)cc1`?
A: GI50: 0.41 µM; TGI: 30.6 µM

Q: Which results are given for `CCc1ccc(/C=C/c2ccc(O)c3ncccc23)[n+](C)c1`?
A: GI50: > 29.3 µM; TGI: > 100 µM

Q: How did the TGI turn out when `S=c1[nH]c2c(Cl)c(Cl)c(Cl)c(Cl)c2[nH]1` was run?
A: 48.1 µM

Q: With `O=C(/C=C/C=C/c1ccccc1)c1ccccc1` as the molecule, how does the TGI read?
A: 30.8 µM

tested on: HCT-15 colon; experiment: NCI-60 cell line screen, 48 h

Q: What does the source list for `CCN(Cc1ccc(F)cc1)c1ccc(CO)c(Br)c1`?
A: GI50: 5.8 µM; TGI: > 52.6 µM

Q: For `Cc1ccc2c(C3C(C#N)=C(N)Oc4cc5ccccc5cc43)cc(=O)oc2c1` (stereo not given), which GI50 is on record?
A: 0.64 µM

Q: What about the TGI of the same molecule?
A: > 100 µM

Q: Which GI50 does the source give for `COC(=O)c1cc2c(s1)-c1nccc3c1c(nc1ccccc13)C2=O` here?
A: > 100 µM

Q: What about the TGI of the same molecule?
A: > 100 µM

Q: Which results are given for `COc1ccc(-c2cc(/C=C/C(=O)c3ccc(OC)c(OC)c3)[nH]n2)cc1`?
A: GI50: 1.35 µM; TGI: 3.56 µM

Q: With `C[Si](C)(C)/C(I)=C/CO` as the molecule, how does the TGI read?
A: 72.1 µM

Q: With `C[N+](C)(C)CC1CCC/C1=N\OC(=O)c1ccccc1` (stereo not given) as the molecule, how does the TGI read?
A: > 100 µM

Q: With `Oc1ccc(Nc2c3ccccc3nc3occ(Cl)c23)cc1` as the molecule, how does the GI50 read?
A: 4.77 µM

Q: What about the TGI of the same molecule?
A: > 100 µM

Q: `O=C(Nc1cc(C(F)(F)F)ccc1Cl)c1cccc(NC2=C(Cl)C(=O)N(Cc3ccccc3)C2=O)c1` was tested. Which GI50 did it give?
A: 23.5 µM

Q: And the TGI?
A: > 100 µM

Q: Which GI50 does the source give for `CCCCCCCN=C(N)c1ccc(N2CCN(c3ccc(C(N)=NCCCCCCC)cc3)CC2)cc1` here?
A: 0.45 µM

Q: What about the TGI of the same molecule?
A: > 61.9 µM

Q: Which TGI does the source give for `Cc1ccc(S(=O)OCc2c(C)c(C)c(COS(=O)c3ccc(C)cc3)c(C)c2C)cc1` (stereo not given) here?
A: > 100 µM

Q: With `COc1ccc2c(c1)c[n+](C)c1c3cc(OC)c(OC)cc3ccc21` as the molecule, how does the TGI read?
A: 30 µM and > 74.1 µM

Q: How did the GI50 turn out when `CN(C)C(=S)Sc1ccc([N+](=O)[O-])cc1[N+](=O)[O-]` was run?
A: 1.46 µM

Q: What about the TGI of the same molecule?
A: 4.2 µM

Q: For `C[C@H]1CN[C@@H]2[C@@H](C)[C@H]3[C@@H](C[C@H]4[C@@H]5CC[C@H]6C[C@@H](N)CC[C@]6(C)[C@H]5CC[C@]34C)O[C@@]2(O)C1`, which TGI is on record?
A: 4.5 µM

Q: What does the source list for `CSc1ccccc1C#C/C=C\C#Cc1ccccc1N`?
A: GI50: 6.65 µM; TGI: 32.5 µM
